Measurements taken from patent US20240002326A1, “COMPOUNDS AND USE THEREOF IN METHODS OF TREATMENT” (The University of Queensland, priority 2016, published 2024).

Legend:
[1] = Cytotoxicity assay (Alamar blue), COS-7; type: cell-based, Monkey; settings: chlorocebus aethiops, COS-7 cells; COS7, 24 h; read-out: In vitro cytotoxicity CC50 ± SD COS7
Description: Cell toxicity was determined using Alamar blue, as previously described (McMillian et al., 2002). COS-7 cells were seeded as 7000 cells per well in black wall clear bottom 96-well plates in DMEM medium (Life Technologies Australia) with 10% FBS. HepG2 and HEK293 cell lines, from ATCC, were seeded as 5000 cells per well in black wall clear bottom 384-well cell culture plates in DMEM with 1% FBS. Cells were cultured for 24 h at 37° C., 5% CO2. A serial dilution of compounds was added, with a final DMSO concentration adjusted to 0.5% v/v. Cells were incubated for another 24 h. 1 Triton X-100 was used as negative control, and 0.5% DMSO as positive control. 5 μM Alamar blue was added to each well and fluorescence was measured (λexc=560 nm, λem=590 nm) after 2 h incubation at 37° C. Data were analysed using Prism software.

full-length mouse SOX18 = full-length mouse SOX18 (Mus musculus (Mouse), UniProt P43680); test: FP DNA-binding competition assay, full-length SOX18; settings: full-length mouse SOX18, Prox1-DNA probe, read-out: FP IC50 ± SD
full-length mouse SOX18, sequence (P43680 whole entry): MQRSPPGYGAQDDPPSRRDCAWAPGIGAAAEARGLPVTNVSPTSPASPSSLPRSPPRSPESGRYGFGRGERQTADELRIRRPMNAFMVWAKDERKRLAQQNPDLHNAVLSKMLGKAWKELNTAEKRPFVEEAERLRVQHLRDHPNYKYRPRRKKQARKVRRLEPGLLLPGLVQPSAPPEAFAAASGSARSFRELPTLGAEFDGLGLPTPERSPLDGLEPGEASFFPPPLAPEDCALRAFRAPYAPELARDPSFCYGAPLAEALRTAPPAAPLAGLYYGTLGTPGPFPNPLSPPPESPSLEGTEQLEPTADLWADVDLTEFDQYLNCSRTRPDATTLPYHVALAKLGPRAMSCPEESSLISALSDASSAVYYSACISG
Description: Full-length mouse SOX18. A N-terminally tagged mouse HIS-GST-SOX18 was recombinantly expressed in Sf9 cells, purified on GST resin (GE Healthcare Life Sciences, Sweden) and eluted in Tris buffer (50 mM Tris, 500 mM NaCl, 10 mM reduced glutathione, pH 8.0). cDNA clone of mouse Sox18 was PCR amplified and cloned into the pOPIN-GST vector, to generate N-terminally tagged HIS-GST-SOX18. A sequence verified construct was co-transfected with flashBACULTRA (Oxford Expression Technologies, Oxford, United Kingdom) baculovirus DNA onto Spodoptera frugiperda Sf9 cells to obtain recombinantly expressed HIS-GST-SOX18. High Five cells (BTI-TN-5B1-4) in Sf-900™ II serum-free medium were infected at cell density of 1.5×10^6 cells/mL with a multiplicity of infection (MOI) of 5 PFU/cell, and incubated at 21° C. for 144 h before harvest. The cell pellet from 100 mL of expression culture was resuspended in 30 mL of phosphate lysis buffer (50 mM sodium phosphate, 500 mM sodium chloride, 1% Triton X-100, 2 mM magnesium chloride, one tablet of cOmplete Protease Inhibitor Cocktail, pH 7.5) and sonicated on ice for 20 s. The cell lysate was centrifuged at 17,000×g for 40 min at 4° C. Supernatant was incubated with Benzonase Nuclease (Merck Millipore) for 1 h at room temperature for DNA degradation, before being mixed with 500 μL GST resin (GE Healthcare Life Sciences, Sweden) and incubated on a rotating wheel at room temperature for 1 h. The sample was centrifuged at 500×g for 1 min to remove unbound protein in the supernatant. The resin was further washed with 50 resin volumes (RV) wash buffer (50 mM sodium phosphate, 500 mM NaCl, pH 7.5), with unbound protein removed by centrifugation as above. Bound protein was eluted from the resin with 3×1 RV elution buffer (50 mM Tris, 500 mM NaCl, 10 mM reduced glutathione, pH 8.0), collecting the supernatant by centrifugation as above.
The DNA-binding competition assay was performed in black 384-well plates, with mouse full length SOX18, or SOX-HMG fragments. All experiments were performed using a fluorescently-labelled Prox1-DNA element. Controls consisted of free labelled DNA (low FP milli-Polarization index, mP), labelled DNA in presence of protein (negative control, high mP), and labelled DNA and protein in presence of competing excess of unlabelled DNA (positive control, low mP)
The DNA-binding competition assay was performed in 25 uL, in black 384-well plates, using either 30 mM HEPES (N-2-Hydroxyethylpiperazine-N′-2-Ethanesulfonic Acid) (pH 7.5, with 100 mM KCl, 40 mM NaCl, 10 mM NH4OAc, […], 2 mM MgCl2, 0.5 mM EDTA, 0.01% NP-40) for mouse full length SOX18, or Tris-NaCl (10 mM Tris pH 8.0 and 100 mM NaCl) for SOX-HMG fragments. All experiments were performed using a 40 bp double-stranded Prox1-DNA element with 5′ fluorescein amidite (FAM) label (Sigma Proligo or InVitrogen). Optimum binding levels were obtained at 200 nM of mouse full length SOX18 and 60 nM of SOX-HMG fragment, in presence of 5 nM labelled DNA. Controls consisted of free labelled DNA (low FP milli-Polarization index, mP), labelled DNA in presence of protein (negative control, high mP), and labelled DNA and protein in presence of 400 time competing excess of unlabelled DNA (positive control, low mP). Depending on compound, final DMSO concentrations ranged from 2 to 3.33% v/v. After mixing protein, DNA probe and compound, plates were sealed and briskly agitated in the dark for 5 minutes at room temperature, 10 minutes at 37° C., and 30 minutes at room temperature, before reading fluorescence polarization on a Tecan M1000Pro (λexc=485 nm, λem=525 nm). All experiments were performed in triplicates.

SOX18 = SOX18 (Mus musculus (Mouse), UniProt P43680); test: Cell-based luciferase SOX18-dependent transactivation (Vcam1 promoter) in COS-7; settings: COS7, 24 h, read-out: In vitro efficacy in cell IC50 ± SD COS7 (Luc)
SOX18, sequence (P43680 whole entry): as above
Description: Monkey kidney fibroblast-like cells (COS-7) were cultured at 37° C., 5% CO2 in DMEM (Life technologies, 11995) with FBS, sodium pyruvate, L-glutamine, penicillin, streptomycin, non-essential amino acids and HEPES. Cells were grown in 96-well plates to 80% confluency, and transfected with mouse plasmids pGL2 Vcam 1 promoter construct (VC1889) and pSG5 Sox18, using X-tremeGENE 9 DNA transfection reagent (Roche, 06365787001) (Hosking et al., 2004, Duong et al., 2014). After 4-6 h transfection, cells were incubated with compounds in 0.5% FBS medium for another 24 h, before lysis and luciferase assay (Perkin Elmer, 6016711).

[2] = tested on: 4T1.2 mammary carcinoma cells; test: 4T1.2 mammary carcinoma mouse model of breast cancer metastasis; type: in vivo, BALB/c mice; settings: 25 mg/kg/day oral, day 3 to day 12

| IC50 (full-length mouse SOX18) [µM] | IC50 (SOX18) [µM] | Compound | CC50 at 24 h [1] [µM] | median latency (survival) [2] [days] |
| --- | --- | --- | --- | --- |
| 375 ± 84 | 50.5 ± 7.6 | O=C(O)c1cccnc1Nc1cccc(C(F)(F)F)c1 [Nifumic acid, niflumic acid, reference compound] | > 200 |  |
|  |  | CC(=O)Oc1ccccc1C(=O)O [Aspirin] |  | 34 |
| 163 ± 17.7 |  | Cc1ccc(Cl)c(Nc2ccccc2C(=O)O)c1Cl [Meclofenamic acid, reference compound] | 16 ± 0.3 |  |
